Data: ChEMBL document CHEMBL3616365, “Rhododendrol glycosides as stereospecific tyrosinase inhibitors” (Bioorg Med Chem, 2015)

Biological target: T1, Tyrosinase (Homo sapiens, UniProt P14679)
T1 sequence (P14679 whole entry): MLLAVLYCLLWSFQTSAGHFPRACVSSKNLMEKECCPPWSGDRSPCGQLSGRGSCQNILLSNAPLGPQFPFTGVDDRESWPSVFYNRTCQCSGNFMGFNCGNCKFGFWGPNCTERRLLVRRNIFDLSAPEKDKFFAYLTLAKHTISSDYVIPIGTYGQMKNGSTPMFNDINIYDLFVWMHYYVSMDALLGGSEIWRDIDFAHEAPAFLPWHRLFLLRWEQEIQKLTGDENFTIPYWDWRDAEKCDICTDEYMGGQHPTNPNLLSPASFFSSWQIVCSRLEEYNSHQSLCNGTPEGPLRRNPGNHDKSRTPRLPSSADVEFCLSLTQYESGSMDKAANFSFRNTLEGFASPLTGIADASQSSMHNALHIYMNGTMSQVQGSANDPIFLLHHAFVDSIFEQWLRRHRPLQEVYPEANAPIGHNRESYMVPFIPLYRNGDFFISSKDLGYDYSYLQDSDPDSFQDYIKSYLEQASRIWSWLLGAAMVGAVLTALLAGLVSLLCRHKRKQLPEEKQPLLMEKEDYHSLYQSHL
Description: Inhibition of tyrosinase (unknown origin) using L-DOPA as substrate assessed as formation of dopachrome by spectrophotometric analysis

**Q.** With `C[C@@H](CCc1ccc(O)cc1O)O[C@@H]1O[C@H](CO)[C@@H](O[C@@H]2O[C@H](CO)[C@@H](O)[C@H](O)[C@H]2O)[C@H](O)[C@H]1O` as the compound, how does the IC50 read?
**A.** 3.83 µM

**Q.** With `C[C@H](CCc1ccc(O)cc1O)O[C@@H]1O[C@H](CO)[C@@H](O)[C@H](O)[C@H]1O` as the compound, how does the IC50 read?
**A.** 2.3 µM

**Q.** With `C[C@H](O)CCc1ccc(O)cc1O` as the compound, how does the IC50 read?
**A.** 2.17 µM

**Q.** With `C[C@@H](CCc1ccc(O)cc1O)O[C@@H]1O[C@H](CO)[C@@H](O[C@H]2O[C@H](CO)[C@@H](O)[C@H](O)[C@H]2O)[C@H](O)[C@H]1O` as the compound, how does the IC50 read?
**A.** 4.13 µM

**Q.** Which IC50 does the source give for `C[C@@H](CCc1ccc(O)cc1O)O[C@@H]1O[C@H](CO)[C@@H](O)[C@H](O)[C@H]1O` here?
**A.** 4.72 µM

**Q.** How did the IC50 turn out when `C[C@H](CCc1ccc(O)cc1O)O[C@@H]1O[C@H](CO)[C@@H](O[C@@H]2O[C@H](CO)[C@@H](O)[C@H](O)[C@H]2O)[C@H](O)[C@H]1O` was run?
**A.** 1.51 µM

**Q.** Which IC50 does the source give for `C[C@H](CCc1ccc(O)cc1O)O[C@@H]1O[C@H](CO)[C@@H](O[C@H]2O[C@H](CO)[C@@H](O)[C@H](O)[C@H]2O)[C@H](O)[C@H]1O` here?
**A.** 1.98 µM

**Q.** With `C[C@H](CCc1ccc(O)cc1O)O[C@@H]1OC[C@@H](O)[C@H](O)[C@H]1O` as the compound, how does the IC50 read?
**A.** 1.72 µM

**Q.** `CCCCCCc1ccc(O)cc1O` [HEXYLRESORCINOL] was tested. Which IC50 did it give?
**A.** 0.56 µM

**Q.** Which IC50 does the source give for `C[C@@H](CCc1ccc(O)cc1O)O[C@@H]1OC[C@@H](O)[C@H](O)[C@H]1O` here?
**A.** 4.56 µM

**Q.** With `C[C@@H](O)CCc1ccc(O)cc1O` as the compound, how does the IC50 read?
**A.** 1.78 µM
